Reference: US20230303817A1, “BLENDED POLYVINYL ALCOHOL DRUG DELIVERY SYSTEMS” (The University of British Columbia, priority 2020, published 2023)
Values after ≈ are worked out from the molar mass of the structure shown.

Tests used:
[1] = Release of other therapeutic agents from blended PVA cast films or electrospun membranes; format: physicochemical; conditions: for drug release: 1% gentamicin
Description: Films or electrospun membrane were manufactured as described above containing either docetaxel, doxycycline, gentamicin or bovine serum albumin (BSA; as a protein model for any “biological” based drug such as an antibody). […] Gentamicin was analyzed using a fluorescence tag assay using Fluoraldehyde™ (Thermo Fisher) and BSA protein release was assayed using a BCA protein analysis kit.

[2] = cited from earlier work
[3] = tested on: MRSA strain USA300; assay: Antimicrobial efficacy of silver-loaded PVA films and membranes; format: cell-based, S. aureus; conditions: for bacterial death: 1% w/w silver, 20 mg in 10 mL, up to 48 hours; for Anti-bacterial (MRSA) activity: 1% w/w silver salt (FIG. 11)
Description: In order to illustrate the antimicrobial activity of PVA-silver formulations, all cast films and electrospun membranes were weighed at 20 mg +/- 0.5 mg. The methicillin resistant strain of S. aureus (MRSA strain USA300) was cultured overnight from freezer stocks (20 µL bacterial sample into 20 mL Luria Bertani (LB) broth), followed by a second sub-culture (200 µL in 20 mL LB broth) until an optical density of -0.3-0.5 at λ=600 nm was reached (measured using an Eppendorf BioPhotometer (Eppendorf, Mississauga, ON, Canada), at which point bacteria were used as outlined below.

[4] = Film swelling and degradation studies in deionized water (cast films and electrospun membranes); format: physicochemical; conditions: cast films with 48% and 46% PVA 99% content (rest PVA 88%)
Description: PVA films or electrospun membranes were prepared as described above. These films were then stored for one week in the dark before use. Small sections of films (approximate diameters of 2 cm) were then placed on moist 0.2 µm filter discs (Millipore, Billerica, MA, USA) and weighed. The films and filters were covered with a thin layer of deionized water and left for appropriate times. After set time points the filter discs and adherent PVA-silver gel were moved to a Millipore vacuum apparatus and all excess water was removed from the filter over approximately 15 seconds. The combined PVA gel and filter were reweighed and recovered with a fresh layer of excess water. The weight gain (swelling) and weight loss (dissolution) were then calculated as a percentage of the original dry film weight.

[5] = Silver release studies (inductively coupled plasma analysis of release media); format: physicochemical; conditions: electrospun membranes 10:90 PVA99%:PVA88%, 1% w/w silver salt
Description: Films or electrospun membranes containing silver were placed in deionized water and the media sampled at regular intervals for silver analysis by Inductively coupled plasma analysis. Silver calibration standards were run every 10 samples. The instrument held reproducible standard curves over 100 sequential silver analysis with detection limits approximating 10 ng/ml. Each release study was run in triplicate for at least two weeks and the results plotted as the calculated percent silver released as a function of time.

[6] = electrospun membranes 10:90 PVA99%:PVA88%

For `CC(=O)O[C@@]12CO[C@@H]1C[C@H](O)[C@@]1(C)C(=O)[C@H](O)C3=C(C)[C@@H](OC(=O)[C@H](O)[C@@H](NC(=O)OC(C)(C)C)c4ccccc4)C[C@@](O)([C@@H](OC(=O)c4ccccc4)[C@H]21)C3(C)C` [docetaxel], the “drug release, % of total drug” value ([1]; electrospun membranes 35:65, 45:55 or 55:45 PVA 99%:88%, 1% docetaxel, over 7 days) was 5-8%.
For `C[C@H]1c2cccc(O)c2C(=O)C2=C(O)[C@]3(O)C(=O)C(C(N)=O)=C(O)[C@@H](N(C)C)[C@@H]3[C@@H](O)[C@@H]21` [doxycycline], the water solubility [2] is given as 500 µg/mL (≈ 1130 µM).
For `O=S(=O)([O-])[O-].[Ag+].[Ag+]` [silver sulphate], the bacterial death ([3]; cast films 40:60 PVA99%:PVA88%) was 100%, the “Anti-bacterial (MRSA) activity” value [3, 6] was “killed all MRSA bacteria” and the bacterial death [3, 6] was 100%. The “Anti-bacterial (MRSA) activity” value ([3]; films 40:60 PVA99%:PVA88%) was “killed all MRSA bacteria”, the “swelling at 6 hours” value [4] was over 0% and the “silver release by day 11” value [5] was 75%.
For gentamicin, the drug release ([1]; cast films 35:65, 45:55 or 55:45 PVA 99%:88%, over 7 days) was 50-70% and the drug release ([1]; electrospun membranes 35:65, 45:55 or 55:45 PVA 99%:88%, over 6 days) was 40%.
